These results are taken from USRE35904E, “Method and probes for detecting nucleoside transporter and method for producing the probes” (Governors of the University of Alberta, priority 1995, dated 1998).

The target of assay [1] is T1, es nucleoside transporter (Mus musculus, UniProt Q9JIM1).
T1 construct: endogenous in cells; host or cells: L1210/B23.1 mouse leukemia cells
T1 sequence (Q9JIM1 1-460): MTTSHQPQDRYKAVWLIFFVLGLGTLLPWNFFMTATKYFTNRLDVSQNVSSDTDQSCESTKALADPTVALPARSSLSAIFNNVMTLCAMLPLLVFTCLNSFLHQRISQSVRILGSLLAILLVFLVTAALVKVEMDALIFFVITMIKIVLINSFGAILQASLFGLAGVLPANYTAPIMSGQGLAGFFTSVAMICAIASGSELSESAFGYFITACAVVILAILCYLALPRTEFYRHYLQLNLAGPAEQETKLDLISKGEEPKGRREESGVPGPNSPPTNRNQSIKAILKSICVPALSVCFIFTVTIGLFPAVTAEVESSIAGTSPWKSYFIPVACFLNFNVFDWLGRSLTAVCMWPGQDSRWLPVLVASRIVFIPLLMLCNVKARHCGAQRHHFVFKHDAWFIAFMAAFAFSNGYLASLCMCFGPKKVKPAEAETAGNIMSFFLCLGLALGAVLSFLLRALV
The experiment in a line: Flow cytometric staining of L1210/B23.1 cells (es nucleoside transporter-expressing) by SAENTA-fluorescein probe. The assay is classed as cell-based. How it is done: (§1) Flow cytometric measurements of binding of .[.SAENTA-x2 -fluorescein.]. .Iadd.SAENTA-X2-fluorescein .Iaddend.prepared as in Example 3 was carried out as in Example 4 using two clonal lines of cultured mouse leukemia L 1210 cells, L 1210/B23.1 and L 1210/MA-27.1. L 1210/B23.1 expresses NBMPR binding sites and nuclesoside transporter activity whereas L 1210/MA-27.1 cells lack both of these features.
(§2) Staining conditions were chosen to minimise non-specific fluorescence signals from L 1210/MA-27.1 cells treated with the nucleoside.
(§3) Cells were exposed for 10 min at 4° C. to phosphate-buffered (pH 8.0) salts medium containing 40 nM .[.5(SAENTA-xx2)fluorescein.]. .Iadd.5-(SAENTA-X2)-fluorescein .Iaddend.prior to flow cytometric analysis in a BD FACSan instrument; 10^5 cells were analysed. Cells in replicate assay mixtures were also exposed for 5 min at 22° C. to medium containing 10 μM NBMPR and then for 10 min at 4° C. to medium containing both NBMPR and .[.5-SAENTA-x2)-fluorescein.]. .Iadd.5-(SAENTA-X2)-fluorescein.Iaddend..
(a) Clonal lines of mouse leukemia cells were exposed for 10 min at 4° C. to phosphate buffered (pH 8.0) saline containing […] .[.5-(SAENTA-x2)-fluorescein.]. .Iadd.5-(SAENTA-X2)-fluorescein .Iaddend.(prepared as in Example 3) prior to flow cytometric analysis in a BD FACScan instrument; 10^4 cells were analysed. Cells in replicate mixtures were also exposed for 5 min at 22° C. to medium containing 10 μM NBMPR and then for 10 min at 4° C. to medium containing both NBMPR and .[.5-(SAENTA-x2)-fluorescein.]. .Iadd.5-(SAENTA-X2)-fluorescein.Iaddend.. L 1210/B23.1 cells express the es nucleoside transport system whereas L 1210/MA-27.1 cells lack that activity.
On the technique in general: Flow cytometry measures light scatter and fluorescence of single cells or particles in a stream.

The next assay has as its system L 1210/MA-27.1 cells. The experiment in a line: Flow cytometric staining of L1210/MA-27.1 cells (lacking es nucleoside transporter). The conditions noted are these: with or without NBMPR pretreatment, FIG. 9. The assay is classed as cell-based, mouse. How it is done:
as §1, §2, §3
(a) Clonal lines of mouse leukemia cells were exposed for 10 min at 4° C. to phosphate buffered (pH 8.0) saline containing […] .[.5-(SAENTA-x2)-fluorescein.]. .Iadd.5-(SAENTA-X2)-fluorescein .Iaddend.(prepared as in Example 3) prior to flow cytometric analysis in a BD FACScan instrument; 10^4 cells were analysed. […]

Assay [2] has as its target T1, es nucleoside transporter. The assay can be described thus: [3H]NBMPR equilibrium binding to L1210/B23.1 cells and its inhibition by SAENTA-fluorescein probes. The conditions noted are these: 22°, replots of Kd(app)/Bmax versus [probe], read-out: Ki (mean ± S.D.).
In assay [3] the target is T1, es nucleoside transporter. The assay can be described thus: Concentration-dependence of fluorescent staining of L1210/B23.1 cells by flow cytometry. The assay is classed as cell-based. As to conditions: 40 min, 4° C., pH 8.0, autofluorescence 298. How it is done: (b) Concentration-dependence of fluorescent staining of L 1210/23.1 cells by .[.5-(SAENTA-x2)-fluorescein.]. .Iadd.5-(SAENTA-X2)-fluorescein .Iaddend.was measured and the results are set out in Table 4.
Cells in PBS at pH 8.0 were incubated with the listed concentrations of the SAENTA-fluor probe at 4° C. for 40 min prior to flow cytometric analysis.

The test system of assay [4] is es nucleoside transporter. As to conditions: Gati et al. 1987; cited from earlier work.

As for `O=C1OC2(c3ccc(O)cc3Oc3cc(O)ccc32)c2ccc(NC(=S)NCCSC[C@H]3O[C@@H](n4cnc5c(NCc6ccc([N+](=O)[O-])cc6)ncnc54)[C@H](O)[C@@H]3O)cc21` [5-(SAENTA-X2)-fluorescein, 5'-S-[2-(Fluorescein-5-thioureidyl)ethyl]-N^6-(4-nitrobenzyl)-5'-thioadenosine], the “staining of L1210/B23.1 cells” value in assay [1] (40 mM (so in the source), 10 min, 4° C., pH 8.0, FIG. 9) is “stained 1210/B23.1 cells”. Moreover, the “specificity of staining of the cell lines” value in assay [1] (L1210/B23.1 versus L1210/MA27.1, FIG. 9) was “specific for the es nucleoside transporter system”. For the same compound, the “fluorescence of L1210/MA27.1 cells after staining compared with autofluorescence” value in the assay on L 1210/MA-27.1 cells is reported as “very similar”. For the same compound, in assay [2], the Ki was 17 ± 8 nM. Further, the Fluorescence intensity in assay [3] (5 nM) worked out at 301 mean channel no; in assay [3] (10 nM) it was 344 mean channel no; in assay [3] (20 nM) it was 372 mean channel no; in assay [3] (40 nM), 407 mean channel no; in assay [3] (60 nM), 427 mean channel no; in assay [3] (80 nM), 429 mean channel no. The Fluorescence intensity in assay [3] (160 nM) stood at 497 mean channel no; in assay [3] (320 nM), 601 mean channel no; in assay [3] (640 nM), 691 mean channel no; in assay [3] (1280 nM) it was 761 mean channel no.

For “[^125 I]Iodohydroxynitrobenzylthioinosine [[125I]Iodohydroxynitrobenzylthioinosine]”, the non-specific adsorption entry in assay [4] is recorded as “high non-specific adsorption”.
